Each structure is given as a SMILES string.

In the experiment the target is ROCK2 (Homo sapiens (Human), UniProt O75116). Kind of experiment: ROCK2 kinase IC50 assay (CISBIO HTRF KinEASE-STK S2 kit). The experiment is classed as biochemical. The following applies: ROCK2 from Carna Biosciences, 2 h incubation at room temperature. The protocol:
The kinase IC50 was determined by a commercialized CISBIO kinase detection kit, HTRF KinEASE-STK S2 kit (62ST2PEC). ROCK2 (01-119) employed in the reaction was purchased from Carna Biosciences.
Before the assay, the following working solutions as needed were formulated with corresponding reagents according to the instruction of the kinase detection kit: 1×kinase buffer, 5×STK-52 substrate working solution (1.5 μM) and 5×ATP working solution (1.5 μM), 5×ROCK2 kinase working solution, 4×Streptavidin-XL665 working solution, and 4×STK-Ab-Cryptate 2 detection solution. Then the assay was performed according to the following procedure.
A solution of a compound at a concentration of 10000 nM was prepared with the 1×kinase buffer containing 2.5% DMSO. Gradient dilution of the solution of the compound was performed with the kinase buffer containing DMSO, so as to obtain solutions of a test compound at 9 different concentrations. In addition to wells of test compounds, a positive well (containing all the reagents except the compound) and a negative well (containing all the reagents except the test compound and kinase) were set. Except for the control wells (positive and negative wells), a solution of a test compound (4 μL) was added to each of the reaction wells, and a solution of 2.5% DMSO was added to the control wells. Then the substrate (2 μM, i.e., 2 μL 5×STK-S2 substrate working solution) was added to each of the reaction wells. The 5×ROCK2 kinase working solution (2 μL, containing 1.4 ng ROCK2 kinase) was added to each of the reaction wells except for the negative well, the volume of which was made up with the 1×kinase buffer (2 μL). The 5×ATP working solution (2 μL) was added to each of the reaction wells, and the mixtures were incubated at room temperature for 2 hours. After the kinase reaction was complete, the 4×Streptavidin-XL665 working solution was added to each of the reaction wells, the solutions were mixed, followed by immediate addition of the 4×STK-Ab-Cryptate 2 detection solution (5 μL), and the mixtures were incubated at room temperature for 1 hour. The fluorescence signal was read on ENVISION (Perkinelmer) (excitation wavelength: 320 nm, and emission wavelength: 665 nm and 615 nm). The inhibitory rate in each well was calculated based on the fluorescence intensity value: ER (Emission Ratio)=(fluorescence intensity at 665 nm/fluorescence intensity at 615 nm); inhibitory rate=(ERpositive−ERtest compound) (ERpositive−ERnegative)*100%. Curves were plotted and fitted to obtain the median inhibitory concentration (IC50) of each teat compound with the PRISM 5.0 software.
On the technique in general: In TR-FRET formats the signal depends on donor and acceptor labels being close together.

Chain of ROCK2 (O75116 1-553): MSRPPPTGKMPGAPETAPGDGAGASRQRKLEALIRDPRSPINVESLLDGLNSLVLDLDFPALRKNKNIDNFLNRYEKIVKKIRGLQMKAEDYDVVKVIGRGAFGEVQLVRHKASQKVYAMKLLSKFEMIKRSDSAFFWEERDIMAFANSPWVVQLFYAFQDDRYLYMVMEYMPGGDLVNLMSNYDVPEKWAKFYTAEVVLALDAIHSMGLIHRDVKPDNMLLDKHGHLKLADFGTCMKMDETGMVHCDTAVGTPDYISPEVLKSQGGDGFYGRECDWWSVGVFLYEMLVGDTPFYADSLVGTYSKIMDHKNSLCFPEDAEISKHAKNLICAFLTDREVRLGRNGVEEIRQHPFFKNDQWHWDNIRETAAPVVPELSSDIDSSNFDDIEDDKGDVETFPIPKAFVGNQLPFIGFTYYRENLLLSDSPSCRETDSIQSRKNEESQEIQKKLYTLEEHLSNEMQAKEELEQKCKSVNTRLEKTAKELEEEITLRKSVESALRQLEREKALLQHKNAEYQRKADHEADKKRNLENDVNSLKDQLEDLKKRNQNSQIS

For orientation: IC50 means the concentration that gives 50% inhibition. A high value points to weaker potency in that assay. `CC(C)NC(=O)c1cc2ccc(-c3nccc(Nc4ccc5[nH]ncc5c4)n3)cc2o1` [TDI01102, 6-(4-((1H-indazol-5-yl)amino)pyrimidin-2-yl)-N-isopropylbenzofuran-2-carboxamide] had an IC50 of 110 nM.

The compound `CC(C)NC(=O)C1COc2ccc(-c3nccc(Nc4ccc5[nH]ncc5c4)n3)cc2O1` (stereo not drawn) [TDI01103, 7-(4-((1H-indazol-5-yl)amino)pyrimidin-2-yl)-N-isopropyl-2,3-dihydrobenzo[b][1,4]dioxine-2-carboxamide] registered an IC50 of 167 nM.

As for `CC(C)NC(=O)c1cc2ccc(-c3nccc(Nc4ccc5[nH]ncc5c4)n3)cc2s1` [TDI01104, 6-(4-((1H-indazol-5-yl)amino)pyrimidin-2-yl)-N-isopropylbenzo[b]thiophene-2-carboxamide], the IC50 came to 71 nM.

`CC(C)NC(=O)c1ccc2cc(-c3nccc(Nc4ccc5[nH]ncc5c4)n3)sc2c1` [TDI01106, 2-(4-((1H-indazol-5-yl)amino)pyrimidin-2-yl)-N-isopropylbenzo[b]thiophene-6-carboxamide] gave an IC50 of 112 nM.

`CC(C)NC(=O)c1cc2ccc(-c3nccc(Nc4ccc5[nH]ncc5c4)n3)cc2[nH]1` [TDI01108, 6-(4-((1H-indazol-5-yl)amino)pyrimidin-2-yl)-N-isopropyl-1H-indole-2-carboxamide]: the IC50 is 22 nM. This IC50 lies about 5.1-fold lower than the previous one.

`CNC(=O)c1cc2ccc(-c3nccc(Nc4ccc5[nH]ncc5c4)n3)cc2s1` [TDI01109, 6-(4-((1H-indazol-5-yl)amino)pyrimidin-2-yl)-N-methylbenzo[b]thiophene-2-carboxamide]: the IC50 was determined as 447 nM. This IC50 is about 20-fold higher than that of the compound before.

`CN(C)C(=O)c1cc2ccc(-c3nccc(Nc4ccc5[nH]ncc5c4)n3)cc2s1` [TDI01110, 6-(4-((1H-indazol-5-yl)amino)pyrimidin-2-yl)-N,N-dimethylbenzo[b]thiophene-2-carboxamide]: the IC50 was found to be 422 nM.

As to `O=C(NC1CC1)c1cc2ccc(-c3nccc(Nc4ccc5[nH]ncc5c4)n3)cc2s1` [TDI01111, 6-(4-((1H-indazol-5-yl)amino)pyrimidin-2-yl)-N-cyclopropylbenzo[b]thiophene-2-carboxamide], inhibition was half-maximal at 100 nM (IC50).

As for `O=C(NC1CCCCC1)c1cc2ccc(-c3nccc(Nc4ccc5[nH]ncc5c4)n3)cc2s1` [TDI01112, 6-(4-((1H-indazol-5-yl)amino)pyrimidin-2-yl)-N-cyclohexylbenzo[b]thiophene-2-carboxamide], the IC50 came out at 185 nM. This IC50 is about 1.9-fold higher than that of the compound before.

`O=C(NC1CCOC1)c1cc2ccc(-c3nccc(Nc4ccc5[nH]ncc5c4)n3)cc2s1` (stereo not drawn) [TDI01113, 6-(4-((1H-indazol-5-yl)amino)pyrimidin-2-yl)-N-(tetrahydrofuran-3-yl)benzo[b]thiophene-2-carboxamide] came in with an IC50 of 42 nM.

Compound `CN1CCC(NC(=O)c2cc3ccc(-c4nccc(Nc5ccc6[nH]ncc6c5)n4)cc3s2)CC1` [TDI01114, 6-(4-((1H-indazol-5-yl)amino)pyrimidin-2-yl)-N-(1-methylpiperidin-4-yl)benzo[b]thiophene-2-carboxamide] displayed an IC50 of 157 nM.

`CC(C)NC(=O)c1cc2ccc(-c3nc(Nc4ccc5[nH]ncc5c4)cc(OCCN(C)C)n3)cc2s1` [TDI01121, 6-(4-((1H-indazol-5-yl)amino)-6-(2-(dimethylamino)ethoxy)pyrimidin-2-yl)-N-isopropylbenzo[b]thiophene-2-carboxamide] showed an IC50 of 470 nM.

In the case of `CC(C)NC(=O)c1cc2ccc(-c3nc(Nc4ccc5[nH]ncc5c4)c4ccn(CCN(C)C)c4n3)cc2s1` [TDI01122, 6-(4-((1H-indazol-5-yl)amino)-7-(2-(dimethylamino)ethyl)-7H-pyrrolo[2,3-d]pyrimidin-2-yl)-N-isopropylbenzo[b]thiophene-2-carboxamide], half-maximal inhibition (IC50) required 219 nM.

Compound `CC(C)NC(=O)c1ccc2cc(-c3nccc(Nc4ccc5[nH]ncc5c4)n3)[nH]c2c1` [TDI01127, 2-(4-((1H-indazol-5-yl)amino)pyrimidin-2-yl)-N-isopropyl-1H-indole-6-carboxamide] showed an IC50 of 100 nM.

On to `CC(C)NC(=O)c1cc2ccc(-c3nc(Nc4ccc5[nH]ncc5c4)c4ccccc4n3)cc2[nH]1` [TDI01128, 6-(4-((1H-indazol-5-yl)amino)quinazolin-2-yl)-N-isopropyl-1H-indole-2-carboxamide], for which inhibition was half-maximal at 145 nM (IC50).

In the case of `COC(=O)c1ccc(NC(=O)c2cc3ccc(-c4nccc(Nc5ccc6[nH]ncc6c5)n4)cc3[nH]2)cc1` [TDI01130, methyl 4-(6-(4-((1H-indazol-5-yl)amino)pyrimidin-2-yl)-1H-indole-2-carboxamido)benzoate], the IC50 is 33 nM.

For `CN1CCN(c2ccc(NC(=O)c3cc4ccc(-c5nccc(Nc6ccc7[nH]ncc7c6)n5)cc4[nH]3)cc2)CC1` [TDI01131, 6-(4-((1H-indazol-5-yl)amino)pyrimidin-2-yl)-N-(4-(4-methylpiperazin-1-yl)phenyl)-1H-indole-2-carboxamide], the IC50 stood at 101 nM. This IC50 is about 3.1-fold higher than that of the compound before.

`Cn1cc(NC(=O)c2cc3ccc(-c4nccc(Nc5ccc6[nH]ncc6c5)n4)cc3[nH]2)cn1` [TDI01134, 6-(4-((1H-indazol-5-yl)amino)pyrimidin-2-yl)-N-(1-methyl-1H-pyrazol-4-yl)-1H-indole-2-carboxamide] displayed an IC50 of 62 nM. Against the preceding compound, the IC50 is about 1.6-fold lower.

For `CC(C)NC(=O)c1cc2ccc(-c3nc(Nc4ccc5[nH]ncc5c4)c4occc4n3)cc2s1` [TDI01135, 6-(4-((1H-indazol-5-yl)amino)furo[3,2-d]pyrimidin-2-yl)-N-isopropylbenzo[b]thiophene-2-carboxamide], the IC50 was found to be 123 nM.

With `CC(C)NC(=O)c1cc2ccc(-c3nc(Nc4ccc5[nH]ncc5c4)c4sccc4n3)cc2s1` [TDI01136, 6-(4-((1H-indazol-5-yl)amino)thieno[3,2-d]pyrimidin-2-yl)-N-isopropylbenzo[b]thiophene-2-carboxamide], the IC50 was found to be 66 nM. This IC50 is about 1.9-fold lower than that of the compound before.

Take `CC(NC(=O)c1cc2ccc(-c3nccc(Nc4ccc5[nH]ncc5c4)n3)cc2[nH]1)c1ccccc1` (stereo not drawn) [TDI01140, 6-(4-((1H-indazol-5-yl)amino)pyrimidin-2-yl)-N-(1-phenylethyl)-1H-indole-2-carboxamide]: half-maximal inhibition (IC50) required 109 nM.

With `CC(C)NC(=O)c1cc2ccc(-c3nc(Nc4ccc5[nH]ncc5c4)c4sccc4n3)cc2[nH]1` [TDI01141, 6-(4-((1H-indazol-5-yl)amino)thieno[3,2-d]pyrimidin-2-yl)-N-isopropyl-1H-indole-2-carboxamide], the IC50 was 73 nM.

`CC(C)NC(=O)c1cc2ccc(-c3nc(Nc4ccc5[nH]ncc5c4)c4ccsc4n3)cc2[nH]1` [TDI01142, 6-(4-((1H-indazol-5-yl)amino)thieno[2,3-d]pyrimidin-2-yl)-N-isopropyl-1H-indole-2-carboxamide] gave an IC50 of 225 nM.

Take `CC(C)NC(=O)c1cc2ccc(-c3nc(Nc4ccc5[nH]ncc5c4)c4cc[nH]c4n3)cc2[nH]1` [TDI01143, 6-(4-((1H-indazol-5-yl)amino)-7H-pyrrolo[2,3-d]pyrimidin-2-yl)-N-isopropyl-1H-indole-2-carboxamide]: half-maximal inhibition (IC50) was put at 72 nM.

Compound `CC(C)NC(=O)c1cc2ccc(-c3nc(Nc4ccc5[nH]ncc5c4)c4scnc4n3)cc2[nH]1` [TDI01149, 6-(7-((1H-indazol-5-yl)amino)thiazolo[4,5-d]pyrimidin-5-yl)-N-isopropyl-1H-indole-2-carboxamide] came in with an IC50 of 100 nM. The IC50 values of the last two compounds are within 1.5-fold of each other.

`O=C(NC1CC1)c1cc2ccc(-c3nccc(Nc4ccc5[nH]ncc5c4)n3)cc2[nH]1` [TDI01151, 6-(4-((1H-indazol-5-yl)amino)pyrimidin-2-yl)-N-cyclopropyl-1H-indole-2-carboxamide] displayed an IC50 of 45 nM.

For `O=C(Nc1ccncc1)c1cc2ccc(-c3nccc(Nc4ccc5[nH]ncc5c4)n3)cc2[nH]1` [TDI01153, 6-(4-((1H-indazol-5-yl)amino)pyrimidin-2-yl)-N-(pyridin-4-yl)-1H-indole-2-carboxamide], the IC50 was 16 nM.

Turning to `O=C(Nc1cnoc1)c1cc2ccc(-c3nccc(Nc4ccc5[nH]ncc5c4)n3)cc2[nH]1` [TDI01156, 6-(4-((1H-indazol-5-yl)amino)pyrimidin-2-yl)-N-(isoxazol-4-yl)-1H-indole-2-carboxamide], 25 nM corresponded to half-maximal inhibition (IC50). Against the preceding compound, the IC50 is about 1.6-fold higher.

In the case of `O=C(Nc1cnccn1)c1cc2ccc(-c3nccc(Nc4ccc5[nH]ncc5c4)n3)cc2[nH]1` [TDI01160, 6-(4-((1H-indazol-5-yl)amino)pyrimidin-2-yl)-N-(pyrazin-2-yl)-1H-indole-2-carboxamide], the concentration for half-maximal inhibition (IC50) worked out at 54 nM.

Regarding `O=C(Nc1ccncn1)c1cc2ccc(-c3nccc(Nc4ccc5[nH]ncc5c4)n3)cc2[nH]1` [TDI01161, 6-(4-((1H-indazol-5-yl)amino)pyrimidin-2-yl)-N-(pyrimidin-4-yl)-1H-indole-2-carboxamide], the IC50 is 210 nM.

(Values after patent publication US10329282B2, “Rho-associated protein kinase inhibitor, pharmaceutical composition comprising the same, as well as preparation method and use thereof” (Beijing Tide Pharmaceutical Co., Ltd., priority 2017, dated 2019).)
